Results as given in patent US20200069691A1, “HETEROCYCLIC COMPOUNDS AS HIV PROTEASE INHIBITORS” (Merck Sharp & Dohme Corp., priority 2016, published 2020).

Biological target: T1, wild-type HIV-1 protease (Human immunodeficiency virus type 1 group M subtype B, UniProt P04585)
T1 construct: Escherichia coli expressed wild-type HIV-1 protease protein
Assay: Assay for Inhibition of Microbial Expressed HIV Protease (peptide substrate cleavage, LC-MS/MS readout)
Assay type: biochemical
Conditions: E. coli expressed wild-type HIV-1 protease, mean of at least two independent experiments, read-out: HIV Pr Enzyme HIV1 PR IC50
In short: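 E. coli-expressed wild-type HIV-1 protease ([…]) was preincubated with inhibitor 30 min at room temperature in pH 5.5 acetate buffer (100 mM NaCl, 0.1% BSA). Then 400 μM octapeptide substrate was added and reacted 1 h at 30 °C; inhibition came from LC-MS/MS product peak areas, mean of ≥2 experiments.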

| Compound | IC50 [nM] |
| --- | --- |
| CN(C)S(=O)(=O)c1cccc(-c2ncc3c(n2)CN(C(=O)c2cc(CN4C(=N)N[C@](CCCC(F)(F)F)(c5ccc(F)cc5)C4=O)ccc2C(F)(F)F)C3)c1 [Compound 66, 3-(6-{[5-{[(4R)-4-(4-fluorophenyl)-2-imino-5-oxo-4-(4,4,4-trifluorobutyl)imidazolidin-1-yl]methyl}-2-(trifluoromethyl)-phenyl]carbonyl}-6,7-dihydro-5H-pyrrolo[3,4-d]pyrimidin-2-yl)-N,N-dimethylbenzene-sulfonamide] | 7.73 |
| COC(=O)N1CCN(C(=O)c2cccc(CN3C(=N)NC(CCC(C)C)(c4cccc(F)c4)C3=O)c2)CC1 (stereo not shown) [Compound 348, methyl 4-[(3-{[4-(3-fluorophenyl)-2-imino-4-(3-methylbutyl)-5-oxoimidazolidin-1-yl]methyl}phenyl)-carbonyl]piperazine-1-carboxylate] | 84.1 |
| CN1CCOc2cc(-c3ncc4c(n3)CN(C(=O)c3cc(CN5C(=N)N[C@](CCCC(F)(F)F)(c6ccc(F)cc6)C5=O)ccc3C(F)(F)F)C4)cnc21 [Compound 45, (5R)-5-(4-fluorophenyl)-2-imino-3-[3-{[2-(4-methyl-3,4-dihydro-2H-pyrido[3,2-b][1,4]oxazin-7-yl)-5,7-dihydro-6H-pyrrolo[3,4-d]pyrimidin-6-yl]carbonyl}-4-(trifluoromethyl)benzyl]-5-(4,4,4-trifluorobutyl)imidazolidin-4-one] | 4.6 |
| N=C1NC(c2ccc(F)cc2)(c2ccc(F)cc2)C(=O)N1Cc1cccc(C(=O)N2Cc3ccc(F)cc3C2)c1 [Compound 232, 3-{3-[(5-fluoro-1,3-dihydro-2H-isoindol-2-yl)carbonyl]benzyl}-5,5-bis(4-fluorophenyl)-2-iminoimidazolidin-4-one] | 13.5 |
| CCc1nnc2n1CCN(C(=O)c1cc(CN3C(=N)N[C@](CCCC(F)(F)F)(c4ccc(F)cc4)C3=O)ccc1C(F)(F)F)C2 [Compound 65, (5R)-3-{3-[(3-ethyl-5,6-dihydro[1,2,4]triazolo[4,3-a]pyrazin-7(8H)-yl)carbonyl]-4-(trifluoromethyl)benzyl}-5-(4-fluorophenyl)-2-imino-5-(4,4,4-trifluorobutyl)imidazolidin-4-one] | 7.39 |
| N=C1NC(c2ccc(F)cc2)(c2ccc(F)cc2)C(=O)N1Cc1cccc(C(=O)N2Cc3ccccc3C2)c1 [Compound 195, 3-[3-(1,3-dihydro-2H-isoindol-2-ylcarbonyl)benzyl]-5,5-bis(4-fluorophenyl)-2-iminoimidazolidin-4-one] | 56.9 |
| CC(C)CC[C@]1(c2ccccc2)NC(=N)N([C@H](C)c2cccc(C(=O)N3Cc4cncnc4C3)c2)C1=O [Compound 216, 3-{(1R)-1-[3-(5,7-dihydro-6H-pyrrolo[3,4-d]pyrimidin-6-ylcarbonyl)phenyl]ethyl}-2-imino-5-(3-methylbutyl)-5-phenylimidazolidin-4-one] | 10.2 |
| N=C1NC(c2ccccc2)(c2ccccc2)C(=O)N1Cc1cccc(C(=O)N2CCn3c(nnc3C(F)(F)F)C2)c1 [Compound 329, 2-imino-5,5-diphenyl-3-(3-{[3-(trifluoromethyl)-5,6-dihydro[1,2,4]triazolo[4,3-a]pyrazin-7(8H)-yl]carbonyl}benzyl) imidazolidin-4-one] | 66.9 |
| N=C1N[C@](CCCC(F)(F)F)(c2ccc(F)cc2)C(=O)N1Cc1ccc(C(F)(F)F)c(C(=O)N2CCN(c3ccccn3)CC2)c1 [Compound 99, (5R)-5-(4-fluorophenyl)-2-imino-3-{3-[(4-pyridin-2-ylpiperazin-1-yl)carbonyl]-4-(trifluoromethyl)-benzyl}-5-(4,4,4-trifluorobutyl)-imidazolidin-4-one] | 21.4 |
| CN1CCN(C(=O)c2cc(CN3C(=N)NC(c4ccccc4)(c4ccccc4)C3=O)ccc2Cl)CC1=O [Compound 378, 4-({2-chloro-5-[(2-imino-5-oxo-4,4-diphenylimidazolidin-1-yl)methyl]phenyl}carbonyl)-1-methylpiperazin-2-one] | 10.6 |
| COC(=O)N1CCN(C(=O)c2cccc([C@@H](C)N3C(=N)N[C@](CCC(C)C)(c4ccccc4)C3=O)c2)CC1 [Compound 221, methyl 4-[(3-{(1R)-1-[2-imino-4-(3-methylbutyl)-5-oxo-4-phenyl-imidazolidin-1-yl]ethyl}phenyl)-carbonyl]piperazine-1-carboxylate] | 11.1 |
| COC(=O)Nc1ncc2c(n1)CN(C(=O)c1cc(CN3C(=N)NC(CCC(C)C)(c4ccccc4)C3=O)ccc1C(F)(F)F)C2 (stereo not shown) [Compound 137, methyl (6-{[5-{[2-imino-4-(3-methylbutyl)-5-oxo-4-phenylimidazolidin-1-yl]methyl}-2-(trifluoromethyl)phenyl]carbonyl}-6,7-dihydro-5H-pyrrolo[3,4-d]pyrimidin-2-yl)carbamate] | 1.88 |
| COC(=O)Nc1ncc2c(n1)CN(C(=O)c1cccc(CN3C(=N)NC(c4ccc(F)cc4)(c4ccc(F)cc4)C3=O)c1)C2 [Compound 189, methyl {6-[(3-{[4,4-bis(4-fluorophenyl)-2-imino-5-oxoimidazolidin-1-yl]methyl}phenyl)carbonyl]-6,7-dihydro-5H-pyrrolo[3,4-d]pyrimidin-2-yl}carbamate] | 3.83 |
| COC(=O)N1CCN(C(=O)c2cc(F)cc(CN3C(=N)NC(c4ccccc4)(c4ccccc4)C3=O)c2)CC1 [Compound 298, methyl 4-({3-fluoro-5-[(2-imino-5-oxo-4,4-diphenylimidazolidin-1-yl)methyl]phenyl}carbonyl) piperazine-1-carboxylate] | 43.5 |
| CC(C)CCC1(c2cccc(-c3cccnc3)c2)NC(=N)N(Cc2cccc(C(=O)N3Cc4ccccc4C3)c2)C1=O (stereo not shown) [Compound 277, 3-[3-(1,3-dihydro-2H-isoindol-2-ylcarbonyl)benzyl]-2-imino-5-(3-methylbutyl)-5-(3-pyridin-3-ylphenyl)imidazolidin-4-one] | 29.8 |
| N=C1N[C@](CCCC(F)(F)F)(c2ccc(F)cc2)C(=O)N1Cc1ccc(C(F)(F)F)c(C(=O)N2CCN(CC(F)(F)F)CC2)c1 [Compound 127, (5R)-5-(4-fluorophenyl)-2-imino-5-(4,4,4-trifluorobutyl)-3-[3-{[4-(2,2,2-trifluoroethyl)piperazin-1-yl]carbonyl}-4-(trifluoromethyl)-benzyl]imidazolidin-4-one] | 65.1 |
